Calls of active or inactive are those of the source.
Experiments:
[1] = target: Voltage-dependent T-type calcium channel subunit alpha-1H (Homo sapiens, UniProt O95180); format: functional;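 note: channel activity triggered by adding a high calcium stimulation buffer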
[2] = target: T1, Carboxy-terminal domain RNA polymerase II polypeptide A small phosphatase 1 (Homo sapiens, UniProt Q9GZU7); assay: inhibitors of CTDSP1, concentration-response testing, biochemical assay, absorbance-based, actives from ultra-high-throughput screening (AID 540297); format: functional
T1 sequence (Q9GZU7 whole entry): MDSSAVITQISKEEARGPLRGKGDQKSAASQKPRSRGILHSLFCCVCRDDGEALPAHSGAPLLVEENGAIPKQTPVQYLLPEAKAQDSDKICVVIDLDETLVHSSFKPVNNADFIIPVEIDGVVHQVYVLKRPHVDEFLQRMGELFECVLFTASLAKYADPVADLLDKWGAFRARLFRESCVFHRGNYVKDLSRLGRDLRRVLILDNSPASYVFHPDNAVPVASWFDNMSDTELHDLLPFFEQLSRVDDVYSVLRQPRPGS

[3] = microbe, parasite or virus in culture; format: functional; settings: Mycobacterium tuberculosis
[4] = target: T2, Replicative DNA helicase DnaB (Mycobacterium tuberculosis, UniProt P9WMR3); assay: DnaB intein splicing inhibitors, dose response, biochemical, cell-free fluorescence (AID 449749); format: functional
T2 sequence (P9WMR3 whole entry): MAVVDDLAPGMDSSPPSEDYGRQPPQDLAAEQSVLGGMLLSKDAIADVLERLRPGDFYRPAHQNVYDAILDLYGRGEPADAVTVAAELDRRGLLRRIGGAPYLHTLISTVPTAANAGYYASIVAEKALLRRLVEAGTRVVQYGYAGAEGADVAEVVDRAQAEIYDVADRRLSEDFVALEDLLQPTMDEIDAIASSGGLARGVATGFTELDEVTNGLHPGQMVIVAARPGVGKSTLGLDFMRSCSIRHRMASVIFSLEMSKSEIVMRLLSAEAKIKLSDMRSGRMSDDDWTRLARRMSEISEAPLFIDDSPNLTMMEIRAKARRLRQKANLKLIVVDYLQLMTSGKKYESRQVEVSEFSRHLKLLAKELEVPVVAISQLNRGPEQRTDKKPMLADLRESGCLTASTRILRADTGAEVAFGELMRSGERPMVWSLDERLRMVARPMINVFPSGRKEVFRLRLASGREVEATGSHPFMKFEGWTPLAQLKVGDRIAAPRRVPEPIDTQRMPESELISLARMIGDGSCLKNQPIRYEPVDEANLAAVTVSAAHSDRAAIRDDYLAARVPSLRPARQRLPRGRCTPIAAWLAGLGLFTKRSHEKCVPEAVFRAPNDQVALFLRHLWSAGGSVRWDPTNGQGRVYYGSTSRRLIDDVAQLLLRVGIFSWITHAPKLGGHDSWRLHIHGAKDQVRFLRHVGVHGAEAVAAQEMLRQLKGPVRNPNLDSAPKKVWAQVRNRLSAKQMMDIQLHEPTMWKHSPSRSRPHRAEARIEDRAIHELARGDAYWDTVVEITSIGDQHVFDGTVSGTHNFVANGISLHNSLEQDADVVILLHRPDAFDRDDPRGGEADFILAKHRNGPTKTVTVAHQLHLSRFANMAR

[5] = target: T3, Protein RecA (Mycobacterium tuberculosis, UniProt P9WHJ3); assay: Fluorescence Cell-Free Homogeneous Dose Retest to Identify Inhibitors of RecA-Intein Splicing Activity. [Related pubchem assays (depositor defined):AID2097, AID2223, AID489010, AID492950]; format: functional
T3 sequence (P9WHJ3 whole entry): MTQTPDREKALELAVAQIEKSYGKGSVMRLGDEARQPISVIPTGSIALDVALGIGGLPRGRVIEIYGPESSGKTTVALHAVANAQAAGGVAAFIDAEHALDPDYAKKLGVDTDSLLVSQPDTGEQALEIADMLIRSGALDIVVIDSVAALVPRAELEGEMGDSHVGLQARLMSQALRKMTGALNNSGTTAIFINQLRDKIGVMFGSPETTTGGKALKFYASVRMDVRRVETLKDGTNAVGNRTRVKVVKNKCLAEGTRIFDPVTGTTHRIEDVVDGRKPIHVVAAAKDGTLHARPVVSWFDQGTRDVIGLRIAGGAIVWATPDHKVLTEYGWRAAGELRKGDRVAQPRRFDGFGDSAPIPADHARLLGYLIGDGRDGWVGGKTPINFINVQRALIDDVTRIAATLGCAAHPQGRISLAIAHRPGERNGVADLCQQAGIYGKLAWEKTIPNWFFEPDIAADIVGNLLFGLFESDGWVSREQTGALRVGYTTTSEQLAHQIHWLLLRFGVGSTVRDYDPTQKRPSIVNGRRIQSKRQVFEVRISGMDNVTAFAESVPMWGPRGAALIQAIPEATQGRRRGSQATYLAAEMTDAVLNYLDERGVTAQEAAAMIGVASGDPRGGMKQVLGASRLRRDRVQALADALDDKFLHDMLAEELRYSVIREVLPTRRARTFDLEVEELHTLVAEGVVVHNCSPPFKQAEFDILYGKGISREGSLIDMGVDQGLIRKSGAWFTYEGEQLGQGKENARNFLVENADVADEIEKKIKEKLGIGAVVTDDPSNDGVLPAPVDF

[6] = system: Streptococcus sp. 'group A'; assay: growth inhibition of control SK(-) GAS strain, dose response, counter-screen for streptokinase expression inhibitor project, luminescence, kanamycin, BacTiterGlo, confirmation (AID 1900); format: functional, organism-based
[7] = target: T4, Streptokinase A (Streptococcus pyogenes serotype M1, UniProt P10520); assay: S. pyogenes streptokinase expression inhibitors, potency, dose response, plasminogen activation absorbance, OD405 (AID 1914); format: functional, Streptococcus pyogenes M1 GAS;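 note: secreted streptokinase activity via plasminogen activation per viability signal from cell pellet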
T4 sequence (P10520 whole entry): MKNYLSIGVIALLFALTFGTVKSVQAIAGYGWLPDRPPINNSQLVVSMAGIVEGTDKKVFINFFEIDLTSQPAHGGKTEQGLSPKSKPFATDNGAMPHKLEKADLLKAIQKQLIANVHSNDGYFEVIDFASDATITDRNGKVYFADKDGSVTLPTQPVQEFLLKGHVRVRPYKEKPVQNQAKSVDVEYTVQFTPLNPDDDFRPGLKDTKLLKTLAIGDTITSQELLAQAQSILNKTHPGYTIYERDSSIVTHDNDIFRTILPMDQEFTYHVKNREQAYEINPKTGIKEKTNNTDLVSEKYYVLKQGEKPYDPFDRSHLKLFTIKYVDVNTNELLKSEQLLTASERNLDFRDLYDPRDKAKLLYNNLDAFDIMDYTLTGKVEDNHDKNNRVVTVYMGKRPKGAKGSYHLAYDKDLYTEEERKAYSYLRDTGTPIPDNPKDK

[8] = system: Streptococcus; assay: Group A Streptococcus viability loss, dose response, counter-screen for streptokinase expression inhibitor project, luminescence, BacTiterGlo (AID 1915); format: functional, organism-based;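 note: potency for reduction of bacterial viability or growth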
[9] = target: T5, Ubiquitin-conjugating enzyme E2 N (Homo sapiens, UniProt P61088); format: functional;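 note: Dose-response confirmation in a TR-FRET assay detecting UBC13-driven polyubiquitin chain formation, inhibition measured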
T5 sequence (P61088 whole entry): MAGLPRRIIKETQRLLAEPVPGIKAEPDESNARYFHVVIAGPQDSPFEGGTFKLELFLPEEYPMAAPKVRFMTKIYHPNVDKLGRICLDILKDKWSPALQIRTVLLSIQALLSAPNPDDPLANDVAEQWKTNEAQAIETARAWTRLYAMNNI

[10] = target: SUMO-activating enzyme (Homo sapiens, UniProt Q9UBT2); assay: SUMOylation inhibitor hit validation, confirmation, SUMOylation inhibitor project, biochemical, AlphaScreen (AID 2018); format: functional
[11] = system: BJ; assay: cytotoxicity toward BJ-TERT fibroblasts, dose response, cell-based, RAS-independent, luminescence (AID 1933); format: functional; settings: Homo sapiens
[12] = system: BJ; assay: cells; format: functional, cell-based; settings: Homo sapiens
[13] = system: BJ; assay: cytotoxicity toward BJ-TERT-LT-ST fibroblasts, dose response, cell-based, RAS-independent, luminescence (AID 1935); format: functional; settings: Homo sapiens;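 note: BJ fibroblasts immortalized with TERT plus LT and ST oncogenes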
[14] = cytotoxicity toward DRD oncogenic fibroblasts, dose response, cell-based, non-viral oncogenic, luminescence (AID 1934); format: functional; settings: Homo sapiens
[15] = target: T6, Calpain-2 catalytic subunit (Sus scrofa, UniProt P43367); assay: pig calpain II inhibitor potency, dose response, biochemical, fluorogenic peptide substrate (AID 1420); format: functional
T6 sequence (P43367 whole entry): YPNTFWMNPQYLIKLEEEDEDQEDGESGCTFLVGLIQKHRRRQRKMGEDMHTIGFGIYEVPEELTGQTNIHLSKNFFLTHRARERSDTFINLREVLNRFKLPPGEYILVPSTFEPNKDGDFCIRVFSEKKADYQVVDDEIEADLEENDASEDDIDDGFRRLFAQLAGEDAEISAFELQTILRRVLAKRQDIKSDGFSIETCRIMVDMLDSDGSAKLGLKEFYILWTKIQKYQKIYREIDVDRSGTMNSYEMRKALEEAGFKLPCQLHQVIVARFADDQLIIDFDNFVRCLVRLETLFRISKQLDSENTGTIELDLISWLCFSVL

Sequence of Voltage-dependent T-type calcium channel subunit alpha-1H (O95180 whole entry, the tested form may be a part): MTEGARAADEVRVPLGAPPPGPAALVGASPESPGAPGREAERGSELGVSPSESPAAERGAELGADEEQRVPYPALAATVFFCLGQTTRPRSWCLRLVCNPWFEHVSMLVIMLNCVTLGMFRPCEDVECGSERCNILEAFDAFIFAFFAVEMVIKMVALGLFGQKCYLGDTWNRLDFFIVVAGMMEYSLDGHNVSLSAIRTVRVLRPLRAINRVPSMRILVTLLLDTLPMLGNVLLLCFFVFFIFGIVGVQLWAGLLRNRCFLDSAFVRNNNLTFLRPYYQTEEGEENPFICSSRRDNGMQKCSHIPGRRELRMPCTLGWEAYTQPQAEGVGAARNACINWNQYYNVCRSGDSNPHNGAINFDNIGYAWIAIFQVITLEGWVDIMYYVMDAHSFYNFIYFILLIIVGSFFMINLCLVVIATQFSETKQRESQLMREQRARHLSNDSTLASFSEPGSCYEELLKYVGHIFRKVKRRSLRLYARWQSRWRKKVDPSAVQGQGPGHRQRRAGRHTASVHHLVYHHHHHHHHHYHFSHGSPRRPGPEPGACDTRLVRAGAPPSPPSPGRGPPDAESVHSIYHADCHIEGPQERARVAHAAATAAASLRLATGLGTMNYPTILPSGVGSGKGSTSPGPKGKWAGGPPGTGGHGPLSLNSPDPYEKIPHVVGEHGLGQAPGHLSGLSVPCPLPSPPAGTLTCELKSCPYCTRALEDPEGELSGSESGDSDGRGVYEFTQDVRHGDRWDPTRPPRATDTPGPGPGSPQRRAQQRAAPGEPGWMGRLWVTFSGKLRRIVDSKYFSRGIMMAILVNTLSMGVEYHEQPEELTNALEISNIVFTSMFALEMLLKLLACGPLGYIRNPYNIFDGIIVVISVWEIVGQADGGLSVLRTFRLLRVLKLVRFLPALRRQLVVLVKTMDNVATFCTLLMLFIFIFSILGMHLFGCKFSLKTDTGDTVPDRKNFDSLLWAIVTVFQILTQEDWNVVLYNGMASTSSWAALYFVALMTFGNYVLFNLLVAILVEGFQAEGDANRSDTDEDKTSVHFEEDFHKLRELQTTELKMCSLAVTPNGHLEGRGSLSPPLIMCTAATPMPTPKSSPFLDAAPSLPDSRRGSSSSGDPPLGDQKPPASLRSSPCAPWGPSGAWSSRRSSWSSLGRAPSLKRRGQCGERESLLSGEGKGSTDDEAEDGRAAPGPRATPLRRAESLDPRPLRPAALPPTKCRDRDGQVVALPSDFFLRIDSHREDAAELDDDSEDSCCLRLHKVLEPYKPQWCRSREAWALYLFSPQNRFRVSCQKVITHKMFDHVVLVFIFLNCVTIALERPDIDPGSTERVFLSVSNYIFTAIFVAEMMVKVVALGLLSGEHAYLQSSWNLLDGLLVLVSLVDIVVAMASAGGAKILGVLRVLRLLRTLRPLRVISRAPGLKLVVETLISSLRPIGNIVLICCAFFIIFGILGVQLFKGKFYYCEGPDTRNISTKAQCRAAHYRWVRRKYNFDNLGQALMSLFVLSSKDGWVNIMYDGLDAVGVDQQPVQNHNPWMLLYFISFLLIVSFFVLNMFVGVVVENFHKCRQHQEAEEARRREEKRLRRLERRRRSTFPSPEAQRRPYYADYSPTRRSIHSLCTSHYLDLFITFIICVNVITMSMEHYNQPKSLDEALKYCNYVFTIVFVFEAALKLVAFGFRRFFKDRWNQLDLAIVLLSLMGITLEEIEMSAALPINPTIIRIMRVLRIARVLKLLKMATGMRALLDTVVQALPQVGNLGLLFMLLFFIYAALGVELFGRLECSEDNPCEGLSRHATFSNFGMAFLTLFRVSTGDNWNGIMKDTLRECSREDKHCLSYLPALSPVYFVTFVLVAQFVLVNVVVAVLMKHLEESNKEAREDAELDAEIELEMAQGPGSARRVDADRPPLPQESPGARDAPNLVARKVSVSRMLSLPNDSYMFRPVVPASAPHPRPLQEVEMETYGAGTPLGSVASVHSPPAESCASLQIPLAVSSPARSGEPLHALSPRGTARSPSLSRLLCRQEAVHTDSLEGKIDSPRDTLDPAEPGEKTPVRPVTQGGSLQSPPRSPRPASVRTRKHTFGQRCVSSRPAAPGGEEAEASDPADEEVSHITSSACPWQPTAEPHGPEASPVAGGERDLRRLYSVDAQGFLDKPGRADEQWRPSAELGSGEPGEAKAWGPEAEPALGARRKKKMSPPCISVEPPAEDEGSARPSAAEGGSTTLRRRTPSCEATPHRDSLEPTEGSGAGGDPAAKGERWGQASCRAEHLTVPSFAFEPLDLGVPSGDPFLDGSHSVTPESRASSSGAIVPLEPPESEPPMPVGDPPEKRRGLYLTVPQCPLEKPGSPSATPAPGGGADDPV
Sequence of SUMO-activating enzyme (Q9UBE0 whole entry): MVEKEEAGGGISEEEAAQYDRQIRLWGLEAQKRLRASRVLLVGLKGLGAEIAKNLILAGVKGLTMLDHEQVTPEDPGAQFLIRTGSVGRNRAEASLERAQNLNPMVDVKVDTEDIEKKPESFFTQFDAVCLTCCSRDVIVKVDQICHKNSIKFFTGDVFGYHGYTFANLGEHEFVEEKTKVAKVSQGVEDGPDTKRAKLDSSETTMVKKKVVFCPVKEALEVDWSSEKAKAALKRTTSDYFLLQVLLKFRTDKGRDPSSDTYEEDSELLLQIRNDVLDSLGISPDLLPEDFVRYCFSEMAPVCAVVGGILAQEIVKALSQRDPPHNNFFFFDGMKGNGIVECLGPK
Sequence of SUMO-activating enzyme (Q9UBT2 whole entry): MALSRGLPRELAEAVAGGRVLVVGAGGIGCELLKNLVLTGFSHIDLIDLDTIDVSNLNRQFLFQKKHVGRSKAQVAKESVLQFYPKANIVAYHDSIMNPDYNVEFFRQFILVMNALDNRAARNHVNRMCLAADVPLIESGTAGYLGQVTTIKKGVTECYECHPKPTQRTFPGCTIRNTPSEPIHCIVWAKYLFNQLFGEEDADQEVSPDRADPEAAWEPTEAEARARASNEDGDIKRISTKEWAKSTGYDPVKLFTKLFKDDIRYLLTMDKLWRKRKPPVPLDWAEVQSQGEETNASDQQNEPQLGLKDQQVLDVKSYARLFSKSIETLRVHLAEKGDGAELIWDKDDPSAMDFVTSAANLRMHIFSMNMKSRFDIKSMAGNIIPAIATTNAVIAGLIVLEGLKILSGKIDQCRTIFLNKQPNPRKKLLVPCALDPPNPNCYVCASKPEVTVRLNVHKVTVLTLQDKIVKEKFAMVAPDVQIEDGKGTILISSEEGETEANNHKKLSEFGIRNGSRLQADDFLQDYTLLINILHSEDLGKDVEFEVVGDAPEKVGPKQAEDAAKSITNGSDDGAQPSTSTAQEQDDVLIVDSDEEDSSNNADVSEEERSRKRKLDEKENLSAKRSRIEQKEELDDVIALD

## CCc1ccc(S(=O)(=O)NCc2csc(-c3ccccc3)n2)s1
[1]
  EC50: 4.61 µM (active)

## O=C(O)CNC(=O)CC1SC(NNC2=NC(=O)CS2)=NC1=O (stereo not given)
[2]
  IC50: 5.27 µM (active)

## Cn1c2ccccc2c2cc(C(=O)NNC(=O)CCl)sc21
[3]
  CC50: 21.3 µM (active)
[4]
  AC50: > 380 µM (inactive)
[5]
  EC50: 15.7 µM (active)

## COc1cc2ccccc2cc1C(=O)NC(=S)Nc1ccc(C(=O)O)cc1
[6]
  EC50: 8.15 µM (active)
[7]
  EC50: > 150 µM (not active)
[8]
  EC50: 60.9 µM (active)
[2]
  IC50: 4.12 µM (active)

## CC(=O)N1c2ccccc2N(Cc2ccc(C)cc2C)C(=O)C1(C)C
[1]
  EC50: 4.43 µM (active)

## CC[C@@H](C)[C@H](CN[C@H](CNC)C(C)C)NC[C@@H](C)c1ccc(CC(C)C)cc1
[3]
  CC50: 10 µM (active)
[9]
  IC50: > 20 µM (inactive)

## Cc1cccc(C)c1OCC(=O)N=Nc1c(O)[nH]c2ccc(Br)cc12
[10]
  IC50: 10.6 µM (active)

## COc1ccccc1N1CCN(C(=O)CCC(=O)Nc2nnc(CC(C)C)s2)CC1
[11]
  EC50: > 150 µM (not active)
[12]
  EC50: > 150 µM (not active)
[13]
  EC50: > 150 µM (not active)
[14]
  EC50: > 150 µM (inconclusive)

## Cc1ccsc1S(=O)(=O)N1CCCC(CCC(=O)NCc2ccccc2F)C1 (stereo not given)
[15]
  IC50: > 50 µM (not active)

## COc1cccc(-c2nnc(SCC(=O)NCc3ccc4c(c3)OCO4)n2Cc2ccco2)c1
[1]
  EC50: 8.92 µM (active)

## CC(=O)c1sc(NC(=O)COc2ccc(C(C)C)c(C)c2)nc1C
[15]
  IC50: 9.95 µM (not active)

Source: ChEMBL document CHEMBL1201862, “PubChem BioAssay data set” (2004)
